Results published in ChEMBL document CHEMBL5352508, “Discovery and Structure-Based Design of Inhibitors of the WD Repeat-Containing Protein 5 (WDR5)-MYC Interaction” (J Med Chem, 2023).
pIC50: −log10 of the molar value. Blank lines part the entries; values can stand above or below the compound they belong to. Activity calls are given as the source filed them. The calls are words filed in the database; no cut-off is given here.

Key:
WDR5-MYC = WDR5-MYC (Homo sapiens, UniProt P61964); assay: Inhibition of N-terminal his-tagged WDR5 (1 to 334 residues) (unknown origin)/Biotin tagged Myc (256-268 residues) (unknown origin) interaction measured after 1 hrs by HTRF assay; format: protein assay
NCI-H520 = assay: Antiproliferative activity against human NCI-H520 cells assessed as cell growth inhibition measured after 72 hrs by CellTier-Glo assay; format: functional
HL-60 [1] = assay: Antiproliferative activity against human HL-60 cells assessed as cell growth inhibition measured after 72 hrs by CellTier-Glo assay; format: functional
HL-60 [2] = assay: Effect on Cdc20 mRNA expression in human HL-60 cells measured after 24 hrs by RT-qPCR assay; format: functional, cell-based
Daudi = assay: Antiproliferative activity against human Daudi cells assessed as cell growth inhibition measured after 72 hrs by CellTier-Glo assay; format: functional
Ramos = assay: Antiproliferative activity against human Ramos cells assessed as cell growth inhibition measured after 72 hrs by CellTier-Glo assay; format: functional
HL-60 [3] = assay: Downregulation of RPL23 gene expression in human HL-60 cells at 10 uM measured after 24 hrs by RT-qPCR assay; format: functional, cell-based
[4] = molecular target: Histone-lysine N-methyltransferase 2A/WDR5 (Homo sapiens) (UniProt P61964+Q03164); assay: Inhibition of WDR5 (unknown origin)/MLL (unknown origin) interaction by NanoBiT assay; format: protein assay
HL-60 [5] = assay: Effect on AURKB mRNA expression in human HL-60 cells measured after 24 hrs by RT-qPCR assay; format: functional, cell-based
NB-4 = assay: Antiproliferative activity against human NB4 cells assessed as cell growth inhibition measured after 72 hrs by CellTier-Glo assay; format: functional
HL-60 [6] = assay: Downregulation of RPL37A gene expression in human HL-60 cells at 10 uM measured after 24 hrs by RT-qPCR assay; format: functional, cell-based
NCI-H1650 = assay: Antiproliferative activity against human NCI-H1650 cells assessed as cell growth inhibition measured after 72 hrs by CellTier-Glo assay; format: functional
HL-60 [7] = assay: Downregulation of RPL35 gene expression in human HL-60 cells at 10 uM measured after 24 hrs by RT-qPCR assay; format: functional, cell-based
HL-60 [8] = assay: Downregulation of RPL17 gene expression in human HL-60 cells at 10 uM measured after 24 hrs by RT-qPCR assay; format: functional, cell-based
COR-L279 = assay: Antiproliferative activity against human COR-L279 cells assessed as cell growth inhibition measured after 72 hrs by CellTier-Glo assay; format: functional
SHP77 = assay: Antiproliferative activity against human SHP77 cells assessed as cell growth inhibition measured after 72 hrs by CellTier-Glo assay; format: functional
HL-60 [9] = assay: Effect on MCM4 mRNA expression in human HL-60 cells measured after 24 hrs by RT-qPCR assay; format: functional, cell-based
HL-60 [10] = assay: Effect on MCM10 mRNA expression in human HL-60 cells measured after 24 hrs by RT-qPCR assay; format: functional, cell-based

pIC50 (WDR5-MYC): 6.04
Structure (SMILES): Cc1cc(=O)c(C(=O)NCc2c(F)cc(-c3cccc(S(=O)(=O)O)c3)cc2F)nn1-c1ccccc1

pIC50 (WDR5-MYC): 5.43
Structure (SMILES): Cc1cc(=O)c(C(=O)NCc2c(F)cc(N3CC[C@@H](O)C3)cc2F)nn1-c1ccccc1

pIC50 (WDR5-MYC): 5.26
Structure (SMILES): Cc1cc(=O)c(C(=O)NCc2c(F)cc(-c3cccc(C(C)O)c3)cc2F)nn1-c1ccccc1 (configuration not stated)

pIC50 (WDR5-MYC): 4.86
Structure (SMILES): Cc1cc(=O)c(C(=O)NCc2c(F)cc(-c3cncnc3)cc2F)nn1-c1ccccc1

pIC50 (WDR5-MYC): 5.25
Structure (SMILES): Cc1cc(=O)c(C(=O)NCc2c(F)cc(N3CC[C@H](O)C3)cc2F)nn1-c1ccccc1

pIC50 (WDR5-MYC): 5.09
Structure (SMILES): CC(=O)c1cccc(-c2cc(F)c(CNC(=O)c3nn(-c4ccccc4)c(C)cc3=O)c(F)c2)c1

pIC50 (WDR5-MYC): 4.80
Structure (SMILES): Cc1cc(=O)c(C(=O)NCc2c(F)cc(-c3ccccc3)cc2F)nn1-c1ccccc1

pIC50 (WDR5-MYC): 6.11
Structure (SMILES): Cc1cc(=O)c(C(=O)NCc2c(F)cc(N3CC[C@@H](F)C3)cc2F)nn1-c1ccccc1

pIC50 (WDR5-MYC): 4.60
Structure (SMILES): Cc1cc(=O)c(C(=O)NCc2c(F)cc(-c3ccccc3)cc2F)nn1-c1cccnc1

More lines, now with the values behind:

Structure (SMILES): Cc1cc(=O)c(C(=O)NCc2c(F)cc(N3CC[C@H](F)C3)cc2F)nn1-c1cccc(C(=O)O)c1
pIC50 (WDR5-MYC): 6.19

Structure (SMILES): Cc1cc(=O)c(C(=O)NCc2c(F)cc(N3CC[C@@H](F)C3)cc2F)nn1-c1cccc(CC(=O)O)c1
pIC50 (WDR5-MYC): 5.84

Structure (SMILES): Cc1cc(=O)c(C(=O)NCc2c(F)cc(N3CC[C@@H](F)C3)cc2F)nn1-c1cccc(C(=O)O)c1
pIC50 (WDR5-MYC): 5.91

Structure (SMILES): Cc1cc(=O)c(C(=O)NCc2c(F)cc(N3CCCC(C)(C)C3)cc2F)nn1-c1ccccc1
pIC50 (WDR5-MYC): 5.61

Structure (SMILES): Cc1cc(=O)c(C(=O)N(C)Cc2c(F)cc(C3CCCOC3)cc2F)nn1-c1ccccc1 (configuration not stated)
GI50 (NCI-H520): > 50 µM | GI50 (HL-60 [1]): > 50 µM | Activity (HL-60 [2]): inactive | GI50 (Daudi): > 50 µM | GI50 (Ramos): > 50 µM | Activity (HL-60 [3]): inactive | inhibition [4]: inactive | Activity (HL-60 [5]): inactive | GI50 (NB-4): > 50 µM | Activity (HL-60 [6]): inactive | GI50 (NCI-H1650): > 50 µM | Activity (HL-60 [7]): inactive | Activity (HL-60 [8]): inactive | GI50 (COR-L279): > 50 µM | GI50 (SHP77): > 50 µM | Activity (HL-60 [9]): inactive | Activity (HL-60 [10]): inactive | pIC50 (WDR5-MYC): 4.36

Structure (SMILES): Cc1cc(=O)c(O)c(C(=O)NCc2ccc(-c3ccccc3C#N)cc2)o1
pIC50 (WDR5-MYC): 4.86
